Tests used:
[1] = system: GLUTs; experiment: Glucose (D/L-glucose) competition test with CDr17 in M1 macrophages; format: cell-based, mouse; conditions: D/L-glucose 0, 20, 60 mM; CDr17 1 μM; M1 macrophages from RAW264.7
Protocol: In order to analyze a mechanism for selectivity of the compounds (probes) according to the examples, test was performed as follows, using the CDr17 compound of Example 8. First, in order to analyze whether the selectivity of CDr17 is related to GLUTs in cells, a glucose competition test was performed by the following method. As an M1 macrophage medium having no glucose differentiated in RAW264.7 cells, a medium comprising 10% Heat-Inactivated Fetal Bovine Serum (Gibco) and 1% penicillin streptomycin (WELGENE) comprising D/L-glucose at various concentrations (0 (Cont.), 20, 60 mM) were cultured for 5 minutes, and CDr17 (1 μM) was added. The nucleus was stained with Hoechst33342 (1 μg/mL), and the medium was replaced with a fresh medium after 30 minutes. Fluorescence microscopic imaging was performed with Operetta High Throughput screening with a 40× objective lens.

[2] = target: T1, GLUT1 (Mus musculus, UniProt P17809); experiment: GLUT1 blocking with STF-31, then CDr17 fluorescence in M1 macrophages; format: cell-based; conditions: M1 macrophage of RAW264.7; 1 μM CDr17 for 30 minutes
T1 construct: endogenous in cells; host or cells: M1 macrophages of RAW264.7 cells
T1 sequence (P17809 1-492): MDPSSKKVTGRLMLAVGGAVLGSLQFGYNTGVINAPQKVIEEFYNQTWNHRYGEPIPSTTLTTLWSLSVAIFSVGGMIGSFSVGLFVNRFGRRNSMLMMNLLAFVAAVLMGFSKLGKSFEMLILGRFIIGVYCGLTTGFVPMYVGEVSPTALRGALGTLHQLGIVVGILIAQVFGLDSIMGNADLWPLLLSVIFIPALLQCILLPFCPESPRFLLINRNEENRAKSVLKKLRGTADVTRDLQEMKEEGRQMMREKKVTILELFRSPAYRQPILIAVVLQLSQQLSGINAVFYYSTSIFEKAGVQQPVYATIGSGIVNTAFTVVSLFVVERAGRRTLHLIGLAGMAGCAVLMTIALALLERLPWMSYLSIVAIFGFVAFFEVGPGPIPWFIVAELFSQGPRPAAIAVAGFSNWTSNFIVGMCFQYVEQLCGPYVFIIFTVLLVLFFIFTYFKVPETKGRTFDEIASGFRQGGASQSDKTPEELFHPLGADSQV
Protocol: Next, the function of GLUT1 was blocked using STF-3121 which is a selective inhibitor of GLUT1 in the M1 macrophage of RAW264.7, and then a treatment was performed with 1 μM CDr17 for 30 minutes to monitor the inhibition effect.

[3] = system: THP-1 M0, M1, M2 macrophages; experiment: M1 macrophage selectivity by comparison with 2-NBDG in THP-1 macrophages; format: cell-based, human
From the text: In order to compare the selectivity of CDr17 for M1 macrophages, 2-NBDG which is a generally used fluorescent probe was applied to THP-1 which is a macrophage cell line of human origin and tested.

[4] = system: GLUT; experiment: GLUT inhibition test (CDr17 absorption) with cytochalasin B19; format: cell-based, mouse; conditions: inhibitor 0, 0.03, 0.1, 0.3 μM, 30 minutes, M1 macrophage
Protocol: Next, a GLUT inhibition test was performed using cytochalasin B19 which is a general GLUT inhibitor. An inhibitor at various concentrations (0, 0.03, 0.1, 0.3 μM) was cultured for 30 minutes with the M1 macrophage, cells were treated with CDr17, and the fluorescence intensity was analyzed (FIG. 3).

Molecule: O=C[C@@H](O)[C@H](O)[C@@H](O)[C@@H](O)CO [L-glucose]
- effect on CDr17 fluorescence intensity / absorption by the M1 macrophage [1]: did not affect absorption of CDr17

Molecule: CC(C)(C)c1ccc(S(=O)(=O)NCc2ccc(C(=O)Nc3cccnc3)cc2)cc1 [STF-31]
- entry of CDr17 into M1 cells [2]: significantly decreased dependently on the dose

Molecule: O=[N+]([O-])c1ccc(N[C@H]2C(O)O[C@H](CO)[C@@H](O)[C@@H]2O)c2nonc12 (stereo partly drawn) [Example 2-NBDG, 2-NBDG]
- ability to distinguish M1 macrophage from M0 and M2 by fluorescence intensity ([3]; THP-1, CDr17 0.5 μM, 2-NBDG 1, 5, 10, 50, 100 μM): M1 and M2 macrophages were not able to be clearly distinguished at any concentration
- concentration needed for observation of fluorescence intensity ([3]; THP-1 macrophages): 100 µM

Molecule: O=C[C@H](O)[C@@H](O)[C@H](O)[C@H](O)CO [D-glucose]
- effect on CDr17 fluorescence intensity / absorption by the M1 macrophage [1]: decreased dose-dependently

Molecule: cytochalasin B19
- effect on absorption of CDr17 through GLUT [4]: blocked dose-dependently absorption of CDr17 through GLUT
